Results as given in the NIST ThermoML archive (doi:10.1021/acs.jced.8b00403).
± gives the expanded uncertainty stated by the source.

Test: wn = mass fraction of the nth substance listed
Conditions: 101.33 kPa, Liquid; for viscosity: Concentric cylinders viscometry; for mass density: Vibrating tube method

OCCCO [propan-1,3-diol] + O
Conditions	mass density [kg/m3]	viscosity [mPa·s]
253.15 K, w1 = 0.4453	1053.7 ± 8	40.11 ± 12
253.15 K, w1 = 0.501	1058 ± 8	49.09 ± 15
253.15 K, w1 = 0.6123	1068.2 ± 8	85.87 ± 26
253.15 K, w1 = 0.7236	1074.9 ± 8	158.67 ± 48
253.15 K, w1 = 0.8349	1078.5 ± 8	267.81 ± 81
253.15 K, w1 = 0.9277	1079.6 ± 8	418.56 ± 130
253.15 K, w1 = 1	1078.2 ± 8	574.39 ± 170
258.15 K, w1 = 0.4453	1051.8 ± 8	29.02 ± 8.7
258.15 K, w1 = 0.501	1055.9 ± 8	35.24 ± 11
258.15 K, w1 = 0.6123	1065.8 ± 8	63.15 ± 19
258.15 K, w1 = 0.7236	1072.2 ± 8	110.64 ± 33
258.15 K, w1 = 0.8349	1075.5 ± 8	184.18 ± 55
258.15 K, w1 = 0.9277	1076.5 ± 8	293.3 ± 88
258.15 K, w1 = 1	1075.4 ± 8	409.88 ± 120
263.15 K, w1 = 0.334	1035.2 ± 8	12.02 ± 3.6
263.15 K, w1 = 0.4453	1047.7 ± 8	19.91 ± 6
263.15 K, w1 = 0.501	1052.5 ± 8	24.97 ± 7.5
263.15 K, w1 = 0.6123	1062.1 ± 8	44.2 ± 13
263.15 K, w1 = 0.7236	1068.4 ± 8	76.18 ± 23
263.15 K, w1 = 0.8349	1072.2 ± 8	132.29 ± 40
263.15 K, w1 = 0.9277	1073.2 ± 8	206.53 ± 62
263.15 K, w1 = 1	1072.3 ± 8	289.5 ± 87
268.15 K, w1 = 0.2226	1022.1 ± 8	5.908 ± 1.8
268.15 K, w1 = 0.334	1033.9 ± 8	9.252 ± 2.8
268.15 K, w1 = 0.4453	1045.7 ± 8	15.12 ± 4.5
268.15 K, w1 = 0.501	1050.3 ± 8	18.81 ± 5.6
268.15 K, w1 = 0.6123	1059.5 ± 8	32.82 ± 9.8
268.15 K, w1 = 0.7236	1065.6 ± 8	55.72 ± 17
268.15 K, w1 = 0.8349	1069.3 ± 8	95.75 ± 29
268.15 K, w1 = 0.9277	1070.1 ± 8	149.24 ± 45
268.15 K, w1 = 1	1069 ± 8	207.88 ± 62
273.15 K, w1 = 0.1113	1009.7 ± 8	2.894 ± 0.87
273.15 K, w1 = 0.2226	1021.3 ± 8	4.695 ± 1.4
273.15 K, w1 = 0.334	1032.5 ± 8	7.257 ± 2.2
273.15 K, w1 = 0.4453	1043.7 ± 8	11.74 ± 3.5
273.15 K, w1 = 0.501	1048.1 ± 8	14.52 ± 4.4
273.15 K, w1 = 0.6123	1056.9 ± 8	24.88 ± 7.5
273.15 K, w1 = 0.7236	1062.7 ± 8	41.58 ± 12
273.15 K, w1 = 0.8349	1066.3 ± 8	70.71 ± 21
273.15 K, w1 = 0.9277	1067.1 ± 8	109.69 ± 33
273.15 K, w1 = 1	1065.9 ± 8	152.75 ± 46
283.15 K, w1 = 0.1113	1008.8 ± 8	2.055 ± 0.62
283.15 K, w1 = 0.2226	1019.2 ± 8	3.165 ± 0.95
283.15 K, w1 = 0.334	1029.2 ± 8	4.748 ± 1.4
283.15 K, w1 = 0.4453	1039.3 ± 8	7.451 ± 2.2
283.15 K, w1 = 0.501	1043.3 ± 8	9.1 ± 2.7
283.15 K, w1 = 0.6123	1051.4 ± 8	15.1 ± 4.5
283.15 K, w1 = 0.7236	1056.8 ± 8	24.57 ± 7.4
283.15 K, w1 = 0.8349	1060.2 ± 8	40.76 ± 12
283.15 K, w1 = 0.9277	1061 ± 8	62.32 ± 19
283.15 K, w1 = 1	1059.8 ± 8	86.48 ± 26
293.15 K, w1 = 0.1113	1006.7 ± 8	1.529 ± 0.46
293.15 K, w1 = 0.2226	1016.3 ± 8	2.251 ± 0.68
293.15 K, w1 = 0.334	1025.4 ± 8	3.318 ± 1
293.15 K, w1 = 0.4453	1034.5 ± 8	5.035 ± 1.5
293.15 K, w1 = 0.501	1038.3 ± 8	6.074 ± 1.8
293.15 K, w1 = 0.6123	1045.7 ± 8	9.77 ± 2.9
293.15 K, w1 = 0.7236	1050.9 ± 8	15.48 ± 4.6
293.15 K, w1 = 0.8349	1054 ± 8	25 ± 7.5
293.15 K, w1 = 0.9277	1054.7 ± 8	37.6 ± 11
293.15 K, w1 = 1	1053.6 ± 8	52.01 ± 16
303.15 K, w1 = 0.1113	1004.1 ± 8	1.189 ± 0.36
303.15 K, w1 = 0.2226	1012.9 ± 8	1.689 ± 0.51
303.15 K, w1 = 0.334	1021.1 ± 8	2.421 ± 0.73
303.15 K, w1 = 0.4453	1029.5 ± 8	3.585 ± 1.1
303.15 K, w1 = 0.501	1033 ± 8	4.306 ± 1.3
303.15 K, w1 = 0.6123	1039.9 ± 8	6.724 ± 2
303.15 K, w1 = 0.7236	1044.8 ± 8	10.32 ± 3.1
303.15 K, w1 = 0.8349	1047.8 ± 8	16.26 ± 4.9
303.15 K, w1 = 0.9277	1048.5 ± 8	24.03 ± 7.2
303.15 K, w1 = 1	1047.4 ± 8	32.92 ± 9.9
313.15 K, w1 = 0.1113	1000.4 ± 8	0.9825 ± 0.29
313.15 K, w1 = 0.2226	1008.3 ± 8	1.332 ± 0.4
313.15 K, w1 = 0.334	1016.3 ± 8	1.857 ± 0.56
313.15 K, w1 = 0.4453	1023.9 ± 8	2.659 ± 0.8
313.15 K, w1 = 0.501	1027.3 ± 8	3.148 ± 0.94
313.15 K, w1 = 0.6123	1033.8 ± 8	4.725 ± 1.4
313.15 K, w1 = 0.7236	1038.6 ± 8	7.184 ± 2.2
313.15 K, w1 = 0.8349	1041.5 ± 8	11.05 ± 3.3
313.15 K, w1 = 0.9277	1042.2 ± 8	16.04 ± 4.8
313.15 K, w1 = 1	1041.1 ± 8	21.79 ± 6.5
323.15 K, w1 = 0.1113	996.2 ± 8	0.7887 ± 0.24
323.15 K, w1 = 0.2226	1003.5 ± 8	1.076 ± 0.32
323.15 K, w1 = 0.334	1010.8 ± 8	1.465 ± 0.44
323.15 K, w1 = 0.4453	1018.1 ± 8	2.051 ± 0.62
323.15 K, w1 = 0.501	1021.3 ± 8	2.401 ± 0.72
323.15 K, w1 = 0.6123	1027.4 ± 8	3.522 ± 1.1
323.15 K, w1 = 0.7236	1032.1 ± 8	5.219 ± 1.6
323.15 K, w1 = 0.8349	1035 ± 8	7.801 ± 2.3
323.15 K, w1 = 0.9277	1035.8 ± 8	11.15 ± 3.3
323.15 K, w1 = 1	1034.8 ± 8	15 ± 4.5
333.15 K, w1 = 0.1113	991.1 ± 8	0.6769 ± 0.2
333.15 K, w1 = 0.2226	998.3 ± 8	0.8845 ± 0.27
333.15 K, w1 = 0.334	1005.2 ± 8	1.194 ± 0.36
333.15 K, w1 = 0.4453	1011.8 ± 8	1.641 ± 0.49
333.15 K, w1 = 0.501	1014.8 ± 8	1.885 ± 0.57
333.15 K, w1 = 0.6123	1020.9 ± 8	2.698 ± 0.81
333.15 K, w1 = 0.7236	1025.4 ± 8	3.9 ± 1.2
333.15 K, w1 = 0.8349	1028.3 ± 8	5.713 ± 1.7
333.15 K, w1 = 0.9277	1029.3 ± 8	8.023 ± 2.4
333.15 K, w1 = 1	1028.4 ± 8	10.72 ± 3.2
343.15 K, w1 = 0.1113	985.3 ± 8	0.5651 ± 0.17
343.15 K, w1 = 0.2226	992.4 ± 8	0.7245 ± 0.22
343.15 K, w1 = 0.334	999.3 ± 8	0.9821 ± 0.29
343.15 K, w1 = 0.4453	1005.3 ± 8	1.301 ± 0.39
343.15 K, w1 = 0.501	1008.4 ± 8	1.512 ± 0.45
343.15 K, w1 = 0.6123	1014.1 ± 8	2.123 ± 0.64
343.15 K, w1 = 0.7236	1018.5 ± 8	3.01 ± 0.9
343.15 K, w1 = 0.8349	1021.5 ± 8	4.303 ± 1.3
343.15 K, w1 = 0.9277	1022.6 ± 8	5.933 ± 1.8
343.15 K, w1 = 1	1021.9 ± 8	7.855 ± 2.4
353.15 K, w1 = 0.1113	978.6 ± 8	0.4871 ± 0.15
353.15 K, w1 = 0.2226	986.3 ± 8	0.6668 ± 0.2
353.15 K, w1 = 0.334	992.6 ± 8	0.8548 ± 0.26
353.15 K, w1 = 0.4453	998.5 ± 8	1.09 ± 0.33
353.15 K, w1 = 0.501	1001.2 ± 8	1.21 ± 0.36
353.15 K, w1 = 0.6123	1006.8 ± 8	1.731 ± 0.52
353.15 K, w1 = 0.7236	1011.7 ± 8	2.423 ± 0.73
353.15 K, w1 = 0.8349	1014.4 ± 8	3.317 ± 1
353.15 K, w1 = 0.9277	1015.8 ± 8	4.515 ± 1.4
353.15 K, w1 = 1	1015.3 ± 8	5.916 ± 1.8
